Measured values as given in US6346201B1, “Ozonated solutions of tetrasilver tetroxide” (priority 2000, dated 2002).
Like-named read-outs stand apart in the source and are kept apart here.

Columns and labels:
Bacillus subtilis spores = test: Bacillus subtilis spore survival by MALS, AODC and 24-hour CFU count; type: cell-based
Protocol: The efficacy of ozone in the absence of tetrasilver tetroxide was evaluated by challenging Bacillus subtilis spores with 2 ppm ozone and measuring the survival rate over time by MALS, acridine orange direct counts (AODC) and by counting colony forming units (CFU) at 24 hours.
Bacillus subtilus spore suspensions in water were challenged with 2 ppm tetrasilver tetroxide and […] ozone to evaluate the killing efficacy of the combination. The survival rate over time was measured by MALS, AODC and counting colony forming units at 24 hours.

E. coli = test: Ozone kill of E. coli test culture; type: cell-based; details: 3.2 ppm ozone, 1 minute
Protocol: (§1) Ozone is, of course, effective against enteric pathogens. For example, adding 3.2 ppm 03 to a test culture kills 1.95×10^6 cells/mL of E. coli in 1 minute and kills 1.5×10^6 cells/mL of P. aeruginosa in 1 minute.

P. aeruginosa = test: Ozone kill of P. aeruginosa test culture; type: cell-based; details: 3.2 ppm ozone, 1 minute
Protocol: as §1

[1] = Protocol: Ozone concentrations were measured by a chemical oxidation of indigo dye by using an indigo dye […] manufactured by HACH, Inc.
6.1 mg/L (6.1 ppm) of ozone was provided in deionized, distilled water over a 15 minute period. The solution was allowed to stand with stirring by a magnetic stirrer over a 24-hour period, taking periodic readings of the ozone concentration.

E. coli K12 = details: 10 ppm or less tetrasilver tetroxide, within 30 minutes, other studies; cited from earlier work
[2] = B. subtilis spores, 2 ppm ozone, treatment time 0
[3] = B. subtilis spores, 2 ppm ozone, treatment time 5
[4] = B. subtilis spores, 2 ppm ozone, treatment time 10
[5] = B. subtilis spores, 2 ppm ozone, treatment time 15
[6] = B. subtilis spores, 2 ppm ozone, treatment time 20
[7] = B. subtilis spores, 2 ppm ozone, treatment time 30

O=[O+][O-] [ozone]
MALS log intensity vs time of exposure (FIG. 1) (Bacillus subtilis spores; B. subtilis spores, 2 ppm ozone, increasing time of exposure): reduction in the log intensity
24-Hour Count (Bacillus subtilis spores; [2]): 2.10 × 10^6 cfu/mL
24-Hour Count % AODC (Bacillus subtilis spores; [2]): 100 % AODC
24-Hour Count % control (Bacillus subtilis spores; [2]): 100 % control
AODC (Bacillus subtilis spores; [2]): 2.34 × 10^6 spores/mL
AODC % control (Bacillus subtilis spores; [2]): 100 % control
MALS % control (Bacillus subtilis spores; [2]): 100 % control
MALS intensity (Bacillus subtilis spores; [2]): 2436.6
24-Hour Count (Bacillus subtilis spores; [3]): 1.23 × 10^6 cfu/mL
24-Hour Count % AODC (Bacillus subtilis spores; [3]): 76.9 % AODC
24-Hour Count % control (Bacillus subtilis spores; [3]): 58.5 % control
AODC (Bacillus subtilis spores; [3]): 1.6 × 10^6 spores/mL
AODC % control (Bacillus subtilis spores; [3]): 68.3 % control
MALS % control (Bacillus subtilis spores; [3]): 65.33 % control
MALS intensity (Bacillus subtilis spores; [3]): 1591.92
24-Hour Count (Bacillus subtilis spores; [4]): 1.68 × 10^5 cfu/mL
24-Hour Count % AODC (Bacillus subtilis spores; [4]): 14.5 % AODC
24-Hour Count % control (Bacillus subtilis spores; [4]): 8.0 % control
AODC (Bacillus subtilis spores; [4]): 1.16 × 10^6 spores/mL
AODC % control (Bacillus subtilis spores; [4]): 49.5 % control
MALS % control (Bacillus subtilis spores; [4]): 51.89 % control
MALS intensity (Bacillus subtilis spores; [4]): 1264.26
24-Hour Count (Bacillus subtilis spores; [5]): 1.80 × 10^3 cfu/mL
24-Hour Count % AODC (Bacillus subtilis spores; [5]): 0.14 % AODC
24-Hour Count % control (Bacillus subtilis spores; [5]): 0.09 % control
AODC (Bacillus subtilis spores; [5]): 1.29 × 10^6 spores/mL
AODC % control (Bacillus subtilis spores; [5]): 55.1 % control
MALS % control (Bacillus subtilis spores; [5]): 42.67 % control
MALS intensity (Bacillus subtilis spores; [5]): 1039.64
24-Hour Count (Bacillus subtilis spores; [6]): 1.82 × 10^2 cfu/mL
24-Hour Count % AODC (Bacillus subtilis spores; [6]): 0.04 % AODC
24-Hour Count % control (Bacillus subtilis spores; [6]): 0.009 % control
AODC (Bacillus subtilis spores; [6]): 4.87 × 10^5 spores/mL
AODC % control (Bacillus subtilis spores; [6]): 20.8 % control
MALS % control (Bacillus subtilis spores; [6]): 34.94 % control
MALS intensity (Bacillus subtilis spores; [6]): 851.5
24-Hour Count (Bacillus subtilis spores; [7]): 10 cfu/mL
24-Hour Count % AODC (Bacillus subtilis spores; [7]): 0.002 % AODC
24-Hour Count % control (Bacillus subtilis spores; [7]): 0.00005 % control
AODC (Bacillus subtilis spores; [7]): 5.03 × 10^5 spores/mL
AODC % control (Bacillus subtilis spores; [7]): 21.5 % control
MALS % control (Bacillus subtilis spores; [7]): 27.96 % control
MALS intensity (Bacillus subtilis spores; [7]): 681.2
antimicrobial effect (MALS graph, FIG. 3) (Bacillus subtilis spores; twenty-minute treatment with 0.3 ppm ozone): significant killing effect
cells killed (E. coli): 1.95×10^6 cells/mL
cells killed (P. aeruginosa): 1.5×10^6 cells/mL
ozone at 18 hours relative to that expected in the absence of tetrasilver tetroxide ([1]; 2 ppm tetrasilver tetroxide added, 18 hours): approximately an order of magnitude higher
ozone concentration ([1]; 2 ppm tetrasilver tetroxide added, after 18 hours): 0.12 ppm
ozone oxidizing activity ([1]; 2 ppm tetrasilver tetroxide added, by 24 hours): 0.03 ppm
half-life of ozone ([1]; 6.1 ppm ozone initially in deionized, distilled water, no tetrasilver tetroxide): approximately 2 hours
ozone concentration ([1]; 6.1 ppm ozone initially in deionized, distilled water, stirred, by 2 hours): 3 ppm
ozone concentration ([1]; 6.1 ppm ozone initially in deionized, distilled water, stirred, by 18 hours): 0.01 ppm

[Ag+].[Ag+].[Ag+].[Ag+].[O-2].[O-2].[O-2].[O-2] [tetrasilver tetroxide]
antimicrobial effect (MALS graph, FIG. 3) (Bacillus subtilis spores; sixty-minute treatment with 2 ppm tetrasilver tetroxide): little more effective than the untreated control
measurable oxidation as measured by the indigo dye method ([1]; without ozone): neither
kills % of E. coli K12 strain (E. coli K12): 100%
